Tested on: 883617-216-R-J1-PDC complex spheroid viability
Test: Anticancer human tumor 883617-216-R-J1-PDC patient-derived bladder carcinoma cell line growth inhibition [POLQ]
Settings: for IC50: curve of first compound; for viability, T/C: stronger effect = lower value
Summary of the method: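 Three-cell-type spheroids modelling solid tumor plus stroma served as the readout system; POL inhibitors were tested individually and in combination, concentration ranges set by clinical Cmax where known.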

[1] = second compound 0.0316 µM, first compound 0.0316 µM
[2] = second compound 0.0316 µM, first compound 0.1 µM
[3] = second compound 0.0316 µM, first compound 0.316 µM
[4] = second compound 0.0316 µM, first compound 1 µM
[5] = second compound 0.0316 µM, first compound 3.16 µM
[6] = second compound 0.0316 µM, first compound 10 µM
[7] = second compound 0.1 µM, first compound 0.0316 µM
[8] = second compound 0.1 µM, first compound 0.1 µM
[9] = second compound 0.1 µM, first compound 0.316 µM
[10] = second compound 0.1 µM, first compound 1 µM
[11] = second compound 0.1 µM, first compound 3.16 µM
[12] = second compound 0.1 µM, first compound 10 µM
[13] = second compound 0.316 µM, first compound 0.0316 µM
[14] = second compound 0.316 µM, first compound 0.1 µM
[15] = second compound 0.316 µM, first compound 0.316 µM
[16] = second compound 0.316 µM, first compound 1 µM
[17] = second compound 0.316 µM, first compound 3.16 µM
[18] = second compound 0.316 µM, first compound 10 µM
[19] = second compound 1 µM, first compound 0.0316 µM
[20] = second compound 1 µM, first compound 0.1 µM
[21] = second compound 1 µM, first compound 0.316 µM
[22] = second compound 1 µM, first compound 1 µM
[23] = second compound 1 µM, first compound 3.16 µM
[24] = second compound 1 µM, first compound 10 µM
[25] = second compound 3.16 µM, first compound 0.0316 µM
[26] = second compound 3.16 µM, first compound 0.1 µM
[27] = second compound 3.16 µM, first compound 0.316 µM
[28] = second compound 3.16 µM, first compound 1 µM
[29] = second compound 3.16 µM, first compound 3.16 µM
[30] = second compound 3.16 µM, first compound 10 µM
[31] = second compound 10 µM, first compound 0.0316 µM
[32] = second compound 10 µM, first compound 0.1 µM
[33] = second compound 10 µM, first compound 0.316 µM
[34] = second compound 10 µM, first compound 1 µM
[35] = second compound 10 µM, first compound 3.16 µM
[36] = second compound 10 µM, first compound 10 µM
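Further: spheroids exposed to compounds for seven days before readout.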
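Wherever viability, T/C is given: 100% = DMSO vehicle control viability.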

Question: With `COc1cc(C2c3cc4c(cc3C(OC3OC5COC(C)OC5C(O)C3O)C3COC(=O)C23)OCO4)cc(OC)c1O` (centres undefined) + Cc1cccc(N(C)C(=O)C2C(O)CCN2c2nc(C)cc(C(F)(F)F)c2C#N)c1 as the molecule, how does the IC50 (second compound 0.0316 µM) read?
Answer: The IC50 was > 10 µM.

Question: And the IC50 (second compound 0.1 µM)?
Answer: The IC50 was 6.38 µM.

Question: And the IC50 (second compound 0.316 µM)?
Answer: The IC50 was > 10 µM.

Question: What about the IC50 (second compound 1 µM) of the same molecule?
Answer: The IC50 was > 10 µM.

Question: And the IC50 (second compound 3.16 µM)?
Answer: The IC50 was > 10 µM.

Question: What about the IC50 (second compound 10 µM) of the same molecule?
Answer: The IC50 was > 10 µM.

Question: And the viability, T/C [1]?
Answer: Its viability, T/C is 98.5%.

Question: And the viability, T/C [2]?
Answer: The viability, T/C was 95.8%.

Question: What about the viability, T/C [3] of the same molecule?
Answer: The viability, T/C was 75.2%.

Question: And the viability, T/C [4]?
Answer: The viability, T/C was 66%.

Question: And the viability, T/C [5]?
Answer: Its viability, T/C is 64%.

Question: And the viability, T/C [6]?
Answer: Its viability, T/C is 54.8%.

Question: And the viability, T/C [7]?
Answer: The viability, T/C was 109%.

Question: And the viability, T/C [8]?
Answer: The viability, T/C was 97.8%.

Question: And the viability, T/C [9]?
Answer: Its viability, T/C is 86.3%.

Question: What about the viability, T/C [10] of the same molecule?
Answer: Its viability, T/C is 68.1%.

Question: And the viability, T/C [11]?
Answer: The viability, T/C was 59.3%.

Question: What about the viability, T/C [12] of the same molecule?
Answer: The viability, T/C was 44.7%.

Question: And the viability, T/C [13]?
Answer: Its viability, T/C is 96.7%.

Question: What about the viability, T/C [14] of the same molecule?
Answer: The viability, T/C was 85.9%.

Question: And the viability, T/C [15]?
Answer: Its viability, T/C is 70%.

Question: What about the viability, T/C [16] of the same molecule?
Answer: Its viability, T/C is 66.7%.

Question: And the viability, T/C [17]?
Answer: The viability, T/C was 54.4%.

Question: And the viability, T/C [18]?
Answer: The viability, T/C was 53.6%.

Question: What about the viability, T/C [19] of the same molecule?
Answer: Its viability, T/C is 90%.

Question: What about the viability, T/C [20] of the same molecule?
Answer: The viability, T/C was 102%.

Question: And the viability, T/C [21]?
Answer: The viability, T/C was 76.9%.

Question: What about the viability, T/C [22] of the same molecule?
Answer: The viability, T/C was 64.5%.

Question: And the viability, T/C [23]?
Answer: The viability, T/C was 54.9%.

Question: And the viability, T/C [24]?
Answer: The viability, T/C was 52.6%.

Question: What about the viability, T/C [25] of the same molecule?
Answer: The viability, T/C was 121%.

Question: What about the viability, T/C [26] of the same molecule?
Answer: Its viability, T/C is 94.5%.

Question: And the viability, T/C [27]?
Answer: The viability, T/C was 77.8%.

Question: And the viability, T/C [28]?
Answer: The viability, T/C was 61.3%.

Question: What about the viability, T/C [29] of the same molecule?
Answer: Its viability, T/C is 66.5%.

Question: And the viability, T/C [30]?
Answer: Its viability, T/C is 49.6%.

Question: What about the viability, T/C [31] of the same molecule?
Answer: The viability, T/C was 96.8%.

Question: What about the viability, T/C [32] of the same molecule?
Answer: The viability, T/C was 104%.

Question: What about the viability, T/C [33] of the same molecule?
Answer: Its viability, T/C is 73%.

Question: What about the viability, T/C [34] of the same molecule?
Answer: Its viability, T/C is 73.2%.

Question: What about the viability, T/C [35] of the same molecule?
Answer: Its viability, T/C is 60%.

Question: And the viability, T/C [36]?
Answer: The viability, T/C was 55.5%.

Question: For `O=c1[nH]cc(F)c(=O)[nH]1` + Cc1cccc(N(C)C(=O)C2C(O)CCN2c2nc(C)cc(C(F)(F)F)c2C#N)c1, which IC50 (second compound 0.0316 µM) is on record?
Answer: Its IC50 is > 10 µM.

Question: And the IC50 (second compound 0.1 µM)?
Answer: The IC50 was > 10 µM.

Question: What about the IC50 (second compound 0.316 µM) of the same molecule?
Answer: The IC50 was > 10 µM.

Question: What about the IC50 (second compound 1 µM) of the same molecule?
Answer: The IC50 was > 10 µM.

Question: And the IC50 (second compound 3.16 µM)?
Answer: Its IC50 is > 10 µM.

Question: What about the IC50 (second compound 10 µM) of the same molecule?
Answer: Its IC50 is > 10 µM.

Question: What about the viability, T/C [1] of the same molecule?
Answer: Its viability, T/C is 97%.

Question: And the viability, T/C [2]?
Answer: Its viability, T/C is 104%.

Question: And the viability, T/C [3]?
Answer: The viability, T/C was 94.7%.

Question: What about the viability, T/C [4] of the same molecule?
Answer: The viability, T/C was 89.7%.

Question: What about the viability, T/C [5] of the same molecule?
Answer: Its viability, T/C is 79.4%.

Question: What about the viability, T/C [6] of the same molecule?
Answer: The viability, T/C was 57.8%.

Question: What about the viability, T/C [7] of the same molecule?
Answer: Its viability, T/C is 93.3%.

Question: And the viability, T/C [8]?
Answer: Its viability, T/C is 97.2%.

Question: And the viability, T/C [9]?
Answer: The viability, T/C was 89.3%.

Question: And the viability, T/C [10]?
Answer: The viability, T/C was 102%.

Question: And the viability, T/C [11]?
Answer: Its viability, T/C is 75.9%.

Question: And the viability, T/C [12]?
Answer: Its viability, T/C is 62.3%.

Question: And the viability, T/C [13]?
Answer: Its viability, T/C is 104%.

Question: And the viability, T/C [14]?
Answer: Its viability, T/C is 107%.

Question: And the viability, T/C [15]?
Answer: Its viability, T/C is 100%.

Question: What about the viability, T/C [16] of the same molecule?
Answer: The viability, T/C was 109%.

Question: What about the viability, T/C [17] of the same molecule?
Answer: The viability, T/C was 75.1%.

Question: What about the viability, T/C [18] of the same molecule?
Answer: Its viability, T/C is 64.8%.

Question: And the viability, T/C [19]?
Answer: Its viability, T/C is 101%.

Question: And the viability, T/C [20]?
Answer: Its viability, T/C is 105%.

Question: What about the viability, T/C [21] of the same molecule?
Answer: Its viability, T/C is 94.6%.

Question: And the viability, T/C [22]?
Answer: The viability, T/C was 88.2%.

Question: What about the viability, T/C [23] of the same molecule?
Answer: The viability, T/C was 70.7%.

Question: What about the viability, T/C [24] of the same molecule?
Answer: Its viability, T/C is 66.4%.

Question: And the viability, T/C [25]?
Answer: The viability, T/C was 101%.

Question: What about the viability, T/C [26] of the same molecule?
Answer: Its viability, T/C is 90.1%.

Question: What about the viability, T/C [27] of the same molecule?
Answer: Its viability, T/C is 104%.

Question: And the viability, T/C [28]?
Answer: Its viability, T/C is 85.6%.

Question: And the viability, T/C [29]?
Answer: Its viability, T/C is 79.5%.

Question: And the viability, T/C [30]?
Answer: Its viability, T/C is 65.7%.

Question: What about the viability, T/C [31] of the same molecule?
Answer: The viability, T/C was 115%.

Question: And the viability, T/C [32]?
Answer: The viability, T/C was 102%.

Question: And the viability, T/C [33]?
Answer: The viability, T/C was 93.8%.

Question: And the viability, T/C [34]?
Answer: Its viability, T/C is 89.9%.

Question: What about the viability, T/C [35] of the same molecule?
Answer: Its viability, T/C is 78.6%.

Question: What about the viability, T/C [36] of the same molecule?
Answer: The viability, T/C was 74.6%.

From PubChem BioAssay AID1963833 (Molecular Pharmacology Branch, DTP, NCI, 2024)
